Laboratory results published in US9670217B2, “Process for preparing chlorins and their pharmaceutical uses” (UNIVERSIDADE DE COIMBRA, priority 2008, dated 2017).

Tests used:
[1] = Absorption spectra (λmax, molar absorption coefficient); format: physicochemical; conditions: for λmax / εmax: ethanol solutions
[2] = Singlet oxygen quantum yield and lifetime (1270 nm phosphorescence); format: physicochemical; conditions: air-saturated ethanol; for ΦΔ (singlet oxygen quantum yield): phenalenone as reference
Description: Absorption spectra were recorded on a Shimadzu UV-2100 spectrophotometer or with a Carry 50 Biospectrophotometer (Varian, Mulgrave, USA). Fluorescence spectra were measured with a Spex Fluorolog 3 spectrophotometer, with correction for the wavelength dependence system (RCA C31034 photomultiplier), or with a PerkinElmer LS 50 spectrofluorimeter. Transient absorption spectra were measured with an Applied Photophysics LKS 60 nanosecond laser flash photolysis kinetic spectrometer, using the third harmonic of a Spectra-Physics Quanta Ray GCR 130-01 Nd/YAG laser for excitation, a Hamamatsu 1P28 photomultiplier and a Hewlett-Packard Infinium oscilloscope (1 GS/s). Flash photolysis measurements were made in the presence of air and in argon saturated solutions. Photoacoustic calorimetry employed the same Nd/YAG laser, a home-made front-face photoacoustic cell with a 2.25 MHz Panametrics transducer (model 5676) and a Tektronix DSA 601 transient recorder. Room-temperature singlet-oxygen phosphorescence was measured at 1270 nm with a Hamamatsu R5509-42 photomultiplier, cooled to 193 K in a liquid nitrogen chamber (Products for Research model PC176TSCE005), following laser excitation of aerated solutions at 355 nm, using an adapted Applied Photophysics spectrometer. Singlet oxygen emission at 1270 nm was also monitored with a liquid nitrogen-cooled germanium detector (North Coast) coupled to a Tectronix Digitizing scope (TDS 520B), following sample excitation with 5 ns laser pulses of the third harmonic (355 nm) generated by a Q-switched Nd:YAG laser (Continuum Surelite II).
Singlet oxygen quantum yields in ethanol were obtained using a procedure described by some of us, using phenalenone as reference. The literature value for the singlet oxygen quantum yield obtained with phenalenone in ethanol is ΦΔ=0.95 [38].
All the singlet oxygen emissions measured in aerated ethanol solutions are very well described by mono-exponential decays, with typical singlet oxygen lifetimes (τΔ). The ΦΔ values of Table 1 were obtained by the procedures described above and are representative of these photosensitisers.
An air-saturated solution of Luzitin-Cl2Hep in ethanol with an absorbance ca. 0.2 at 355 nm was excited in a 1 cm quartz cuvette by a pulsed Nd:YAG laser, and the singlet oxygen emission was followed at 1270 nm, using the equipment and methods previously described. The intensity of the singlet oxygen phosphorescence was studied as a function of the laser intensity. A similar study was made with phenalenone in ethanol, at a concentration matching the absorbance of Luzitin-Cl2Hep at 355 nm. […] Various laser energies were employed and from the slopes of the energy dependence of singlet oxygen emission and the value of ΦΔ=0.95 for phenalenone in this ethanol, we obtained ΦΔ=0.78 for Luzitin-Cl2Hep.

[3] = Photobleaching under 748 nm diode laser irradiation; format: physicochemical; conditions: for t1/2 (photobleaching half-life): 100 mW laser irradiation at 748 nm
Text: The irradiation of bacteriochlorins in the photobleaching experiments employed the 748 nm Lynx diode laser. For animal studies we employed a costumer-made Hamamatsu diode laser, type LA0873. S/N M070301, which delivered 140 mW at 748 nm. This diode laser was controlled by a ThorLabs 500 mA ACC/APC Laser Diode Controller and in-house electronics. The laser energies of this and the other higher-energy lasers employed in this work were regularly checked with an Ophir model AN/2E laser power meter.
Photobleaching experiments were conducted in PBS. PBS:methanol (50:50) and methanol solutions. The solutions were irradiated in a cuvette with an optical path of 1 cm and the Lynx diode laser. The initial absorption of the solutions was ca. 0.8. The mechanism of photobleaching was assessed with the irradiation of the sensitizer using the Hamamatsu diode laser at 80 mW. The sensitizer was irradiated in PBS and in the presence of ascorbic acid or azide.
The chemical stability of the compounds was studied exposing them to light, air, and pH changes. The most significant degradation occurs for aerated solutions irradiated by light of the appropriate wavelength. In such circumstances the photobleaching of the compounds follows a first-order rate and is proportional to the energy of the incident laser light. In general, it was also observed that the photobleaching rate increases with the amount of water present in the solution. Bennett reported the photoconversion of Foscan® (m-THPC) and of the analogous bacteriochlorin (m-THPB) in PBS:methanol (50:50). Scherz reported the photoconversion of Tookad® in acetone and Triton-X:PBS [3]. For the purpose of comparing the photostability of Luzitins with that of Foscan® and Tookad®, we present in Table 2 the half-lives (t1/2) of representative drugs described herein, together with those of Foscan and Tookad® normalized for a laser power of 100 mW.
Luzitin-FMet was dissolved in PBS:methanol (2:3), transferred to a 1 cm quartz cell and its absorption spectrum was registered, FIG. 6. The quartz cell was then placed in the beam of the 748 nm Lynx diode laser, previously unfocused to have a beam diameter coincident with the window of the quartz cell. The laser power measured under these conditions was 28.8 mW. Every 5 minutes the irradiation was interrupted and a new absorption spectrum was registered. This procedure was followed for 65 minutes. The photobleaching follows the kinetics of a first-order reaction in the time window of the experiment. […] Whereas the bacteriochlorin peak at 743 nm is reduced from an absorbance of 1.128 to 0.337, the absorption of the chlorin only increases from 0.114 to 0.151. Taking into consideration the molar absorption coefficients of the compounds at these wavelengths, it is clear that whereas 70% of the bacteriochlorin is destroyed during the irradiation, only a few percent of chlorin are formed.
The half-lives of other bacteriochlorins normalized 100 mW laser irradiation at 748 nm are presented in […], together with the literature data for the photodegradation of Foscan® and Tookad® normalized for the same light intensity. It was also observed that the half-live to Luzitin-Cl is increased by a factor of 30 when the PBS solution of the photosensitizer is saturated with Argon, which reduces the oxygen concentration in the solution.

[4] = n-octanol:water partition coefficient (shake-flask); format: physicochemical
Description: The n-octanol:water partition coefficients (CP) were measured using a minor modification of the shake-flask method described by some of us in the literature. The modification concerned the excitation of the absorption band ca 500 nm and the collection of the fluorescence in the red/IR region.

[5] = test system: PC-3 (human prostate carcinoma); test: Cell photosensitization, 748 nm diode laser, resazurin; format: cell-based; conditions: for concentration of sensitizer required to kill 90% of cells (LD90): 6 J/cm^2 diode laser irradiation at 28.5 mW
[6] = test system: CT26 (murine colon carcinoma); test: as above; format: cell-based, mouse; conditions: for concentration of sensitizer required to kill 90% of cells (LD90): 6 J/cm^2 diode laser irradiation at 28.5 mW
[7] = corrected for the chlorin content

SMILES | λmax [1] | εmax [1, 7] | τΔ (singlet oxygen lifetime) [2] | ΦΔ (singlet oxygen quantum yield) [2] | t1/2 (photobleaching half-life) ([3]; PBS) | log KOW (n-octanol:water partition coefficient) [4] | cell kill ([5]; 20 μM, laser light dose 6 J/cm^2, incubation 24 hours) | concentration of sensitizer required to kill 90% of cells (LD90) [5] | cell kill ([6]; 10 μM, laser light dose 6 J/cm^2, incubation 18 hours) | enhancement of ε at 750 nm band, more polar atropisomer fraction (βα3+α4) [1] | εmax of the more polar atropisomer fraction (βα3+α4) ([1]; at 748 nm (750 nm band), estimated) | εmax [1] | t1/2 (photobleaching half-life) ([3]; PBS:methanol) | concentration of sensitizer required to kill 90% of cells (LD90) [6] | bacteriochlorin destroyed during irradiation ([3]; PBS:methanol (2:3), 748 nm, 28.8 mW, 65 minutes) | t1/2 (photobleaching half-life) ([3]; methanol)
O=S(=O)(O)c1ccc(Cl)c(-c2c3nc(c(-c4c(Cl)ccc(S(=O)(=O)O)c4Cl)c4ccc([nH]4)c(-c4c(Cl)ccc(S(=O)(=O)O)c4Cl)c4nc(c(-c5c(Cl)ccc(S(=O)(=O)O)c5Cl)c5ccc2[nH]5)CC4)CC3)c1Cl [Luzitin-Cl2, 5,10,15,20-tetrakis(2,6-dichloro-3-sulfonylphenyl)bacteriochlorin] | 745.0 nm | 27,000^d) M^−1 cm^−1 | 15.4 μsec | 0.85 | 358 s | −1.75 | 100% | 20 µM | 100% | – | – | – | – | – | – | –
CCNS(=O)(=O)c1ccc(Cl)c(-c2c3nc(c(-c4c(Cl)ccc(S(=O)(=O)NCC)c4Cl)c4ccc([nH]4)c(-c4c(Cl)ccc(S(=O)(=O)NCC)c4Cl)c4nc(c(-c5c(Cl)ccc(S(=O)(=O)NCC)c5Cl)c5ccc2[nH]5)CC4)CC3)c1Cl [Luzitin-Cl2Et, 5,10,15,20-tetrakis(2,6-dichloro-3-N-ethylsulfamoylphenyl)bacteriochlorin] | 745.5 nm | – | 13.7 μsec | 0.66 | – | 1.8 | – | 5 µM | – | 50% | 150,000 M^−1 cm^−1 | 96,000 M^−1 cm^−1 | 4,013 sec | 5 µM | – | –
O=S(=O)(O)c1ccc(Cl)c(-c2c3nc(c(-c4cc(S(=O)(=O)O)ccc4Cl)c4ccc([nH]4)c(-c4cc(S(=O)(=O)O)ccc4Cl)c4nc(c(-c5cc(S(=O)(=O)O)ccc5Cl)c5ccc2[nH]5)CC4)CC3)c1 [Luzitin-Cl, 5,10,15,20-tetrakis(2-chloro-5-sulfonylphenyl)bacteriochlorin] | 746.5 nm | 23,000^d) M^−1 cm^−1 | 13.6 μsec | 0.43 | 174 s | −1.70 | – | – | – | – | – | – | – | – | – | –
CNS(=O)(=O)c1ccc(F)c(-c2c3nc(c(-c4cc(S(=O)(=O)NC)ccc4F)c4ccc([nH]4)c(-c4cc(S(=O)(=O)NC)ccc4F)c4nc(c(-c5cc(S(=O)(=O)NC)ccc5F)c5ccc2[nH]5)CC4)CC3)c1 [Luzitin-FMet, 5,10,15,20-tetrakis(2-fluoro-5-N-methylsulfamoylphenyl)bacteriochlorin] | 742.5 nm | 62,000^d) M^−1 cm^−1 | 14.1 μsec | 0.71 | – | 2.3 | – | 0.5 µM | – | – | – | – | 647 s | 1.0 µM | 70% | 3,553 sec
